≈ marks a conversion by molar mass, not a printed value. Like-named read-outs stand apart in the source and are kept apart here.
How the values were obtained:
HSV = test system: HSV; parameters: method as in PMID 20643915, PMID 20709216; details: CAPRISA trial; cited from earlier work
HSV-2 (G) [1] = test: HSV-2 replication in human ex vivo tonsillar (lymphoid) tissue, viral DNA; format: cell-based; details: for EC99 (viral load reduced by 2 orders of magnitude): tonsilar tissue, RT-PCR assay; for HSV-2 DNA copies: human lymphoid tissue ex vivo
Text: Figure 5 Suppression of HSV-2 in infected human ex vivo tonsillar tissue by adefovir and PMEO-DAPym. Blocks of human tonsillar tissue were inoculated ex vivo with HSV-2 (G) and treated or not with adefovir or PMEO-DAPym. We monitored HSV-2 (G) replication by measuring viral DNA in culture media at different times throughout the culture period. Presented are means ± SEM of cumulative HSV-2 (G) replication in tissues from two to six donors. For each donor, data represent pooled viral release from 27 tissue blocks.
Figure 7 Suppression of HSV-2 in single-infected and HIV-1 co-infected human ex vivo tonsillar tissue by adefovir and PMEO-DAPym. Panels A and B: Blocks of human tonsillar tissue from five different donors were co-inoculated ex vivo with HSV-2 (G) and HIV-1 (LAI) and treated or not with adefovir or PMEO-DAPym (1 µg/ml). For tissue from each donor, we monitored replication of both viruses by evaluating their accumulation in the culture media bathing 27 tissue blocks at different times throughout the culture. We evaluated HIV-1 replication by measuring p24gag and HSV-2 (G) replication by measuring HSV-2 viral DNA. Panel A: Presented are kinetics of HSV-2 (G) and HIV-1 (LAI) replication (insert). Each point represents the mean ± SEM of viral replication in tissues from five donors. Panel B: Presented are means ± SEM of cumulative HSV-2 (G) and HIV-1 (LAI) replication (insert).
Human tonsillar tissues were obtained from patients undergoing routine tonsillectomy at the Children's National Medical Center (Washington, DC) under IRB-approved protocol. Cervical tissues were obtained through the National Disease Research Interchange (NDRI, Philadelphia, PA). Tissues were dissected into blocks of about 2×2×2 mm and placed onto collagen sponge gels in culture medium at the air-liquid interface as described earlier. For tonsillar tissue for each experimental condition, 27 tissue blocks (9 blocks/well filled with 3 ml of medium) were inoculated with HSV-1 (strain F) or HSV-2 (strains G and MS). In coinfection experiments, tissue blocks were sequentially infected with HSV-2 (G) and HIV-1 (IIIB) (obtained from the Rush University Virology Quality Assurance Laboratory, Chicago, IL). Drugs (adefovir and PMEO-DAPym) were added to the culture medium 12 h prior to viral infection and replenished at each culture medium change.
(§1) For cervico-vaginal tissue, 16 blocks were infected by immersion in HSV-2G-containing medium and maintained on the gelfoam rafts. Adefovir was added at the time of infection and replenished at each culture medium change. HSV replication was evaluated from the release of viral DNA into the culture medium as measured with quantitative real-time PCR [18]. We evaluated HIV-1 replication from the release of p24 capsid antigen using a bead-based assay.

HSV-2 (G strain) = test: Pre-treatment of PHK cell cultures, HSV-2 infection (CPE)
Method: (§2) The HSV-induced cytopathic effect (CPE) was evaluated in HSV-infected HEL and PHK cultures as described [44], [48].

HSV-1 or HSV-2 = test: Topical treatment of athymic nude mice inoculated with HSV-1 or HSV-2; format: in vivo; details: topical gel twice daily for 5 days, p<0.05
Method: Figure 8 Effects of adefovir and PMEO-DAPym on mortality in mice inoculated with HSV-1 or HSV-2. Groups of five nu/nu mice were inoculated with HSV-1 (panel A) or HSV-2 (panel B) on the lumbosacral area. Each cohort was then subjected to topical treatment twice daily for 5 consecutive days, starting on the day of viral infection. The placebo groups received a similar treatment with the test formulation without drug. Mortality was recorded over a period of 30 days. Animals were euthanized when more than 30% loss in body weight or development of paralysis occurred. We estimated survival rates according to the Kaplan-Meier method and compared them using the log-rank test (Mantel-Cox using GraphPad Prism).
Female adult NMRI athymic nude mice or hairless mice (weighing ∼20 g and approximately 4 weeks old) were scarified on the lumbosacral area over a surface of about 1 cm^2 with 5×10^3 PFU of HSV-1 (KOS) or 5×10^2 PFU of HSV-2 (G).
Formulations of adefovir and PMEO-DAPym (0.3% and 1%) in a gel (identical to that used in the CAPRISA 004 trial) were applied topically twice a day for a period of 5 days starting 1–2 h post infection. In each experiment, a group of animals was treated with a placebo formulation that contained exactly the same vehicle but without drug. […] Development of lesions and mortality were recorded over a 1-month period. […]

HIV-1 (LAI) = test: HIV-1 replication (p24) in coinfected human ex vivo lymphoid tissue; format: cell-based; details: lymphoid tissue coinfected with HIV-1 and HSV-2, 1 µg/ml
Method: Figure 7 Suppression of HSV-2 in single-infected and HIV-1 co-infected human ex vivo tonsillar tissue by adefovir and PMEO-DAPym. Panels A and B: Blocks of human tonsillar tissue from five different donors were co-inoculated ex vivo with HSV-2 (G) and HIV-1 (LAI) and treated or not with adefovir or PMEO-DAPym (1 µg/ml). For tissue from each donor, we monitored replication of both viruses by evaluating their accumulation in the culture media bathing 27 tissue blocks at different times throughout the culture. We evaluated HIV-1 replication by measuring p24gag and HSV-2 (G) replication by measuring HSV-2 viral DNA. Panel A: Presented are kinetics of HSV-2 (G) and HIV-1 (LAI) replication (insert). Each point represents the mean ± SEM of viral replication in tissues from five donors. Panel B: Presented are means ± SEM of cumulative HSV-2 (G) and HIV-1 (LAI) replication (insert). […]
as §1, with “Adefovir was added at the time of infection and replenished at each culture medium change.” left out

HSV-1 (KOS strain) = test: Pre-treatment of PHK cell cultures, HSV-1 infection (CPE)
Method: as §2

HSV-2 (G) [2] = test: HSV-2 replication in human cervico-vaginal explants; format: cell-based; details: 1 µg/ml
Method: Figure 6 Suppression of HSV-2 in human cervico-vaginal tissues by adefovir and PMEO-DAPym. Blocks of human cervico-vaginal tissues were inoculated ex vivo with HSV-2 (G) or co-infected with HIV-1 and HSV-2 and treated or not with adefovir (1 µg/ml) or PMEO-DAPym (1 µg/ml). We monitored HSV-2 (G) replication by measuring viral DNA accumulated in culture media at different times throughout the culture period. Presented is cumulative HSV-2 (G) replication, with data representing pooled viral release from 16 tissue blocks.
as §1

[3] = Human alphaherpesvirus 2, read-out: 50% effective concentration, PHK, HSV-2 G, +2 h to 72 h (control, drug present whole incubation)
[4] = Human alphaherpesvirus 2, read-out: 50% effective concentration, PHK, HSV-2 G, pretreatment −2.5 h to 0 h
[5] = Human alphaherpesvirus 2, read-out: 50% effective concentration, PHK, HSV-2 G, pretreatment −6 h to 0 h
[6] = Human alphaherpesvirus 2, read-out: 50% effective concentration, PHK, HSV-2 G, pretreatment −18 h to 0 h
[7] = Human alphaherpesvirus 1, read-out: 50% effective concentration, PHK, HSV-1 KOS, +2 h to 72 h (control, drug present whole incubation)
[8] = Human alphaherpesvirus 1, read-out: 50% effective concentration, PHK, HSV-1 KOS, pretreatment −2.5 h to 0 h
[9] = Human alphaherpesvirus 1, read-out: 50% effective concentration, PHK, HSV-1 KOS, pretreatment −6 h to 0 h
[10] = Human alphaherpesvirus 1, read-out: 50% effective concentration, PHK, HSV-1 KOS, pretreatment −18 h to 0 h

| Compound | prevention of HSV infection (HSV) [%] | EC99 (viral load reduced by 2 orders of magnitude) (HSV-2 (G) [1]) [µg/mL] | EC50 (HSV-2 (G strain); [3]) [µg/mL] | EC50 (HSV-2 (G strain); [4]) [µg/mL] | EC50 (HSV-2 (G strain); [5]) [µg/mL] | EC50 (HSV-2 (G strain); [6]) [µg/mL] | virus-related morbidity and survival (HSV-1 or HSV-2) | HIV-1 inhibition (HIV-1 (LAI)) | EC50 (HSV-1 (KOS strain); [7]) [µg/mL] | EC50 (HSV-1 (KOS strain); [8]) [µg/mL] | EC50 (HSV-1 (KOS strain); [9]) [µg/mL] | EC50 (HSV-1 (KOS strain); [10]) [µg/mL] | inhibition of HSV-2 infection (HSV-2 (G) [2]) | inhibition at 0.3 µg/mL (HSV-2 (G) [1]; Human alphaherpesvirus 2, human lymphoid tissue ex vivo, 0.3 µg/mL, read-out: Inhibition of viral replication (% to control)) [%] | inhibition at 3 µg/mL (HSV-2 (G) [1]; Human alphaherpesvirus 2, human lymphoid tissue ex vivo, 3 µg/mL, read-out: Inhibition of viral replication (% to control)) [%] | HSV-2 DNA copies (HSV-2 (G) [1]; 0.3 µg/mL) | HSV-2 DNA copies (HSV-2 (G) [1]; 3 µg/mL) |
| --- | --- | --- | --- | --- | --- | --- | --- | --- | --- | --- | --- | --- | --- | --- | --- | --- | --- |
| C[C@H](Cn1cnc2c(N)ncnc21)OCP(=O)(O)O [Tenofovir, 9-(2-phosphonylmethoxypropyl)adenine] | 51 | – | – | – | – | – | – | – | – | – | – | – | – | – | – | – | – |
| Nc1ncnc2c1ncn2CCOCP(=O)(O)O [Adefovir, 9-(2-phosphonylmethoxyethyl)adenine] | – | 5 | 9.2 ± 6 (≈ 33.7 µM) | 20 (≈ 73.2 µM) | 11.9 (≈ 43.6 µM) | 13.3 ± 2.6 (≈ 48.7 µM) | significantly delayed virus-related morbidity and prolonged the survival of the mice | 2 orders of magnitude | 5.1 ± 1.7 (≈ 18.7 µM) | 30 (≈ 110 µM) | 23.3 (≈ 85.3 µM) | 8.2 ± 1.6 (≈ 30 µM) | markedly inhibited | – | – | – | – |
| Nc1cc(OCCOCP(=O)(O)O)nc(N)n1 [PMEO-DAPym, 6-phosphonylmethoxyethoxy-2,4-diaminopyrimidine] | – | 2 | 3.5 ± 1.1 (≈ 13.2 µM) | 31.6 (≈ 120 µM) | 12.6 (≈ 47.7 µM) | 8.7 ± 1.8 (≈ 32.9 µM) | significantly delayed virus-related morbidity and prolonged the survival of the mice | 2 orders of magnitude | 2.6 ± 0.8 (≈ 9.84 µM) | 31.6 (≈ 120 µM) | 29.6 (≈ 112 µM) | 7 ± 0.6 (≈ 26.5 µM) | markedly inhibited | 52.8 | > 99 | 5.76 e+7 copies | 8.08 e+5 copies |
